Legend:
Assay type in all cases: in vivo, Wistar rats
high fat diet rats = experiment: Preventive study: high fat diet rats given extract or standard drug for 8 weeks; conditions: for Average Food intake / Average body weight / Cholestrol / HDL / LDL / Tri-glyceride / VLDL: 8 weeks preventive study; for FBG (fasting blood glucose level): preventive study; for Cholestrol / HDL / LDL / Tri-glyceride / VLDL: serum
Protocol: (§1) Thirty male Wistar rats (210-220 g) were obtained from the animal house facility of Dr. Panjwani Center for Molecular Medicine and Drug Research (ICCBS). All animals were kept under standard conditions of temperature and humidity with a 12 h light/dark cycle. This study was approved by the Ethical Committee of International Center for Chemical and Biological Sciences (Protocol #: 2015-0011). After one week of acclimation period, rats were randomly divided into two groups. The control group was fed with normal diet (D12450B, Research Diets, USA), whereas the other groups were fed with high-fat diet (D12451, Research Diets, USA) for a period of 16-week. After 10 weeks, biochemical parameters were evaluated regularly to establish whether the model has developed the symptoms of weight gain and metabolic syndrome.
After a period of 16 weeks, the group of rats on high fat diet (HF) have developed symptoms of metabolic disorders, along with insulin resistance. The HF fed rats were then sub-divided into […] groups of three rats each, i.e. Group 1 (PA), Control; animals in this group received LFD, and distilled water. Group 2, Pathological control (PC); animals in this group received HFD, and distilled water. Group 3 (PO); animals in this group received HFD, and standard drug Orlistat (100 mg/kg/day). Group 4 (PS); animals in this group received HFD, and standard drug Sibutramine (5 mg/kg/day). Group 5 (PC1); animals in this group received HFD, and B. officinalis extract (150 mg/kg/day). Group 6 (PC2); animals in this group received HFD, and B. officinalis extract (300 mg/kg/day).
Body weights were recorded weekly throughout the experiment. The food intake was calculated by using following formula, as described by Ghezzi et al, 2012:
[…] Liver and pancreas samples were prepared and stained with hematoxylin and eosin; the liver was excised and fixed in buffered formalin. The sectioned liver tissue segments were stained with hematoxylin-eosin (H-E), and observed under light microscope.
(§2) Blood glucose, serum insulin, total cholesterol, triglycerides, HDL, LDL, very low density lipoproteins […], urea, creatinine, aspartate aminotransferase […], alkaline phosphatase (ALP), serum glutamic pyruvic transaminase (SGPT), and direct and total bilirubin were estimated. Fasting blood glucose levels were measured using glucometer (AccuChek Performa, Australia). Fasting insulin levels were quantified using ultra sensitive rat insulin ELISA kit (Crystal Chem, Downers Grove, USA). Insulin sensitivity was evaluated using Homeostatic Model Assessment (HOMA). Serum total cholesterol, triglycerides, HDL, LDL, VLDL, urea, creatinine, AST, ALP, SGPT, and direct and total bilirubin were analyzed using automatic analyzer (Hitachi, Roche Diagnostics 902, Tokyo, Japan).

[1] = test system: high-fat diet induced-obese rats; experiment: Therapeutic study: high-fat diet induced-obese rats treated for 12 weeks; conditions: for Average Food intake / Average body weight / FBG (fasting blood glucose level) / Cholesterol / HDL / LDL / Triglycerides / VLDL: obese rats, 12 weeks of treatment; for Average food intake of rats: TO, TS, TC1 and TC2 treated groups, 12 weeks, HFD; for Cholesterol / HDL / LDL / Triglycerides / VLDL: serum
Protocol: as §1
(§3) Whereas for therapeutic studies the animal groups were further sub-divided into following groups which are as follow: Group 1 (TA), Control; animals in this group received LFD, and distilled water. Group 2 (TC), Pathological control; animals in this group received HFD, and distilled water. Groups 3 (TO), High fat diet induced obese animals in this group received standard drug Orlistat (100 mg/kg/day). Group 4 (TS): High fat diet induced obese animals in this group received standard drug Sibutramine (5 mg/kg/day). Group 5 (TC1): High fat diet induced obese animals in this group received B. officinalis extract (150 mg/kg/day). Group 6 (TC2): High fat diet induced obese animals in this group received B. officinalis extract (300 mg/kg/day).
Body weights were recorded weekly throughout the experiment. The food intake was calculated by using following formula, as described by Ghezzi et al, 2012: […]
(§4) For biochemical analysis after 16 weeks of experimental diet, the blood samples were taken from the tail vein after an overnight fast, whereas after 12 weeks of treatment period, rats were subjected to anesthesia, and blood was drawn by cardiac puncture. Liver and pancreas samples were prepared and stained with hematoxylin and eosin; the liver was excised and fixed in buffered formalin. The sectioned liver tissue segments were stained with hematoxylin-eosin (H-E), and observed under light microscope.
as §2
In therapeutic study, we investigated the capacity of B. officinalis extracts to reduce the weight of high fat diet induced obese rats, and to improve the key biochemical parameters in metabolic disorders.
Obese rats were treated with Borago officinalis extracts, at two different doses i.e. 150 mg/kg, and 300 mg/kg of body weight for 12 weeks. During these 12 weeks they were also fed HFD.

[2] = test system: high-fat diet induced-obese rats; experiment: Evaluation of renal and liver toxicity after 12 weeks of treatment (therapeutic study); conditions: 5 mg/kg (TS)
Protocol: as §3, §4, §2
Evaluation of Renal and Liver Toxicity of Borago officinalis Extract

## CC(C)CC(N(C)C)C1(c2ccc(Cl)cc2)CCC1 (stereo not shown) [Sibutramine]
High fat diet rats; 5 mg/kg (PS)
  Average Food intake: 5.34 g/100 g
  Average body weight: 251 ± 0.11 g
  FBG (fasting blood glucose level): 76 ± 2.12 mg/dL
  Cholestrol: 65 ± 0.13 mg/dL
  HDL: 59 ± 0.16 mg/dL
  LDL: 14 ± 0.68 mg/dL
  Tri-glyceride: 51 ± 0.19 mg/dL
  VLDL: 9 ± 0.8 mg/dL
[1]; 5 mg/kg (TS)
  Average Food intake: 4.20 g/100 g
  Average body weight: 361 ± 6.43 g
  FBG (fasting blood glucose level): 80 ± 0.12 mg/dL
  Cholesterol: 65 ± 0.13 mg/dL
  HDL: 59 ± 0.16 mg/dL
  LDL: 14 ± 0.68 mg/dL
  Triglycerides: 51 ± 0.19 mg/dL
  VLDL: 9 ± 0.8 mg/dL
[1]
  Average food intake of rats: decrease
[2]
  ALP: 116 ± 0.14 U/L
  ALT: 85 ± 0.009 U/L
  Creatinine: 0.49 ± 0.02 mg/dL
  SGPT: 38 ± 3.34 U/L
  Total Bilirubin: 0.15 ± 0.01 mg/dL
  Urea: 31 ± 2.42 mg/dL

## CCCCCCCCCCC[C@@H](C[C@@H]1OC(=O)[C@H]1CCCCCC)OC(=O)[C@H](CC(C)C)NC=O [Orlistat]
High fat diet rats; 100 mg/kg (PO)
  Average Food intake: 4.23 g/100 g
  Average body weight: 256 ± 0.10 g
  FBG (fasting blood glucose level): 79 ± 1.04 mg/dL
  Cholestrol: 68 ± 3.66 mg/dL
  HDL: 52 ± 3.04 mg/dL
  LDL: 15 ± 0.41 mg/dL
  Tri-glyceride: 52 ± 0.16 mg/dL
  VLDL: 9 ± 0.87 mg/dL
[1]; 100 mg/kg (TO)
  Average Food intake: 3.18 g/100 g
  Average body weight: 356 ± 4.63 g
  FBG (fasting blood glucose level): 84 ± 0.17 mg/dL
  Cholesterol: 68 ± 3.66 mg/dL
  HDL: 52 ± 3.04 mg/dL
  LDL: 15 ± 0.41 mg/dL
  Triglycerides: 52 ± 0.16 mg/dL
  VLDL: 9 ± 0.87 mg/dL
[1]
  Average food intake of rats: decrease

— patent US10426806B1, “Anti-obesity effect of Borago officinalis linn. extracts to prevent and treat metabolic disorders” (priority 2018, dated 2019)
